From patent US4365063A, “Antihypertensive agents” (American Home Products Corporation, priority 1981, dated 1982)

Key:
[1] = system: spontaneously hypertensive rats; assay: Systolic blood pressure lowering in spontaneously hypertensive rats; type: in vivo, rat
Procedure: The in vivo blood pressure lowering ability of the compounds of this invention was established by measuring the systolic pressure of spontaneously hypertensive rats with a Decker Caudal Plethysmograph or similar sensor device. The compound being tested is administered to groups of four rats and their blood pressure is read prior to compound administration and at 1.5 and 4 hours after compound administration. Depending upon the behavior of the compound being tested, the schedule of blood pressure readings and route of administration is modified. Initially the compounds are administered orally but where compound solubility is a factor, the compounds may be administered parenterally (i.e. i.p., i.m., s.c., i.v., etc.) as desired. The compounds of this invention were initially administered orally at a standard testing dose of 50 mg/kg., and where appropriate, smaller doses were administered to obtain a potency profile.
(§1) The following examples illustrate the preparation of a representative number of compounds of this invention. After each example, the Ca^+2 antagonist activity of the compound is presented in terms of percent relaxation (P.R.) at the stated concentration. Similarly, the antihypertensive activity is reported in terms of millimeters mercury (mmHg) blood pressure (B.P.) reduction at the stated time post oral dosing with the reported amount of compound.

[2] = system: rabbit aortic strips; assay: Ca+2 antagonism: relaxation of potassium-contracted rabbit aortic strips; type: cell-based; details: Oryctolagus cuniculus, strips contracted with 100 millimoles potassium ion, read-out: percent relaxation (P.R.); for inhibition at 10 µM: 10^-5 M bath concentration; for inhibition at 1 µM: 10^-6 M bath concentration
Procedure: After a stable active tension has developed in the strip, as measured by Statham UC-2 force transducers and recorded on an eight channel Beckman Dynograph Polygraphic Recorder, an amount of the antagonist was added to the organ bath to make a 10^-5 molar concentration of antagonist. The depressant effect, expressed as percent relaxation, was taken from the mean of at least two experiments. […] A Ca^+2 antagonist producing a 20 percent relaxation of aortic tissue in this test procedure at a 10^-5 molar bath concentration of the antagonist, generally produced a significant reduction in blood pressure when a sufficient amount is given to the spontaneously hypertensive rat.
as §1

SMILES: COC(=O)C1=C(C)NC2=C(C(=O)CN(C)C2)C1c1c(F)c(F)c(F)c(F)c1F (centres unmarked) [Example 1, 1,4,5,6,7,8-Hexahydro-2,7-dimethyl-4-[2,3,4,5,6-pentafluorophenyl]-5-oxo-1,7-naphthyridine-3-carboxylic Acid Methyl Ester]
- blood pressure (B.P.) reduction ([1]; 5 mg/kg oral, at 1.5 hours): -21 mmHg
- blood pressure (B.P.) reduction ([1]; 5 mg/kg oral, at 4 hours): -10 mmHg
- blood pressure (B.P.) reduction ([1]; 10 mg/kg oral, at 1.5 hours): -63 mmHg
- blood pressure (B.P.) reduction ([1]; 10 mg/kg oral, at 4 hours): -31 mmHg
- blood pressure (B.P.) reduction ([1]; 25 mg/kg oral, at 1.5 hours): -71 mmHg
- blood pressure (B.P.) reduction ([1]; 25 mg/kg oral, at 4 hours): -49 mmHg
- blood pressure (B.P.) reduction ([1]; 50 mg/kg oral, at 1.5 hours): -95 mmHg
- blood pressure (B.P.) reduction ([1]; 50 mg/kg oral, at 4 hours): -89 mmHg
- inhibition at 10 µM [2]: 22.9%

SMILES: COC(=O)C1=C(C)NC2=C(C(=O)CN(Cc3ccccc3)C2)C1c1c(F)c(F)c(F)c(F)c1F (centres unmarked) [Example 2, 1,4,5,6,7,8-Hexahydro-2-methyl-5-oxo-4-(2,3,4,5,6-pentafluorophenyl)-7-(phenylmethyl)-1,7-naphthyridine-3-carboxylic Acid Methyl Ester]
- blood pressure (B.P.) reduction ([1]; 50 mg/kg oral, at 1.5 hours): -20 mmHg
- blood pressure (B.P.) reduction ([1]; 50 mg/kg oral, at 4 hours): -23 mmHg
- inhibition at 1 µM [2]: 56%

SMILES: COC(=O)C1=C(C)NC2=C(C(=O)CNC2)C1c1c(F)c(F)c(F)c(F)c1F (centres unmarked) [Example 3, 1,4,5,6,7,8-Hexahydro-2-methyl-5-oxo-4-(2,3,4,5,6-pentafluorophenyl)-1,7-naphthyridine-3-carboxylic Acid Methyl Ester]
- blood pressure (B.P.) reduction ([1]; 2.5 mg/kg oral, at 1.5 hours): -34 mmHg
- blood pressure (B.P.) reduction ([1]; 2.5 mg/kg oral, at 4 hours): -30 mmHg
- blood pressure (B.P.) reduction ([1]; 5 mg/kg oral, at 1.5 hours): -48 mmHg
- blood pressure (B.P.) reduction ([1]; 5 mg/kg oral, at 4 hours): -36 mmHg
- blood pressure (B.P.) reduction ([1]; 10 mg/kg oral, at 1.5 hours): -79 mmHg
- blood pressure (B.P.) reduction ([1]; 10 mg/kg oral, at 4 hours): -24 mmHg
- blood pressure (B.P.) reduction ([1]; 25 mg/kg oral, at 1.5 hours): -76 mmHg
- blood pressure (B.P.) reduction ([1]; 50 mg/kg oral, at 1.5 hours): -64 mmHg
- blood pressure (B.P.) reduction ([1]; 50 mg/kg oral, at 4 hours): -88 mmHg
- inhibition at 10 µM [2]: 78.7%
- inhibition at 1 µM [2]: 65.2%
